According to ChEMBL document CHEMBL5252541, “Repurposing antipsychotic drugs into antifungal agents: Synergistic combinations of azoles and bromperidol derivatives in the treatment of various fungal infections” (Eur J Med Chem, 2017):

Assays:
Candida albicans [1] = experiment: Additive antifungal activity against Candida albicans ATCC 10231 assessed as fractional inhibitory concentration index measured for 72 hrs in presence of itraconazole; format: functional
Candida albicans [2] = experiment: Synergistic antifungal activity against Candida albicans ATCC 10231 assessed as compound MIC measured after 48 hrs in presence of posaconazole by checkboard based microplate reader analysis; format: functional
Candida albicans [3] = experiment: Additive antifungal activity against Candida albicans ATCC 64124 assessed as fractional inhibitory concentration index measured for 72 hrs in presence of ketoconazole; format: functional
Nakaseomyces glabratus [4] = experiment: Additive antifungal activity against Candida glabrata ATCC 2001 assessed as fractional inhibitory concentration index measured for 72 hrs in presence of voriconazole; format: functional
Candida albicans [5] = experiment: Synergistic antifungal activity against Candida albicans ATCC 64124 assessed as fractional inhibitory concentration index measured for 72 hrs in presence of posaconazole; format: functional
Candida albicans [6] = experiment: Antifungal activity against Candida albicans ATCC MYA-2876 measured after 48 hrs by broth microdilution analysis; format: functional
Candida albicans [7] = experiment: Antifungal activity against Candida albicans ATCC MYA-1237 measured after 48 hrs by broth microdilution analysis; format: functional
Candida albicans [8] = experiment: Additive antifungal activity against Candida albicans ATCC 64124 assessed as fractional inhibitory concentration index measured for 72 hrs in presence of voriconazole; format: functional
Candida albicans [9] = experiment: Additive antifungal activity against Candida albicans ATCC MYA-2310 assessed as fractional inhibitory concentration index measured for 72 hrs in presence of voriconazole; format: functional
Candida albicans [10] = experiment: Additive antifungal activity against Candida albicans MYA-1003 assessed as fractional inhibitory concentration index measured for 72 hrs in presence of voriconazole
Candida albicans [11] = experiment: Additive antifungal activity against Candida albicans ATCC 90819 assessed as fractional inhibitory concentration index measured for 72 hrs in presence of posaconazole; format: functional
Candida albicans [12] = experiment: Additive antifungal activity against Candida albicans ATCC 90819 assessed as fractional inhibitory concentration index measured for 72 hrs in presence of voriconazole; format: functional
Candida albicans [13] = experiment: Synergistic antifungal activity against Candida albicans ATCC 10231 assessed as compound MIC measured after 48 hrs in presence of fluconazole by checkboard based microplate reader analysis; format: functional
Aspergillus terreus [14] = experiment: Antifungal activity against Aspergillus terreus ATCC MYA-3633 measured after 48 hrs by broth microdilution analysis; format: functional
Candida albicans [15] = experiment: Additive antifungal activity against Candida albicans ATCC MYA-2876 assessed as fractional inhibitory concentration index measured for 72 hrs in presence of posaconazole; format: functional
Nakaseomyces glabratus [16] = experiment: Additive antifungal activity against Candida glabrata ATCC 2001 assessed as fractional inhibitory concentration index measured for 72 hrs in presence of posaconazole; format: functional
Candida albicans [17] = experiment: Synergistic antifungal activity against Candida albicans ATCC 64124 assessed as compound MIC measured after 48 hrs in presence of ketoconazole by checkboard based microplate reader analysis; format: functional
Nakaseomyces glabratus [18] = experiment: Antifungal activity against Candida glabrata ATCC 2001 measured after 48 hrs by broth microdilution analysis; format: functional
Candida albicans [19] = experiment: Antifungal activity against Candida albicans ATCC 64124 measured after 48 hrs by broth microdilution analysis; format: functional
Candida albicans [20] = experiment: Antifungal activity against Candida albicans ATCC MYA-1003 measured after 48 hrs by broth microdilution analysis; format: functional
Candida albicans [21] = experiment: Antifungal activity against Candida albicans ATCC 10231 measured after 48 hrs by broth microdilution analysis; format: functional
Candida albicans [22] = experiment: Synergistic antifungal activity against Candida albicans ATCC 10231 assessed as compound MIC measured after 48 hrs in presence of ketoconazole by checkboard based microplate reader analysis; format: functional
Candida albicans [23] = experiment: Synergistic antifungal activity against Candida albicans ATCC 64124 assessed as compound MIC measured after 48 hrs in presence of fluconazole by checkboard based microplate reader analysis; format: functional
Nakaseomyces glabratus [24] = experiment: Synergistic antifungal activity against Candida glabrata ATCC 2001 assessed as fractional inhibitory concentration index measured for 72 hrs in presence of posaconazole; format: functional
Candida albicans [25] = experiment: Potency index, ratio of fluconazole MIC to test compound MIC for antifungal activity against Candida albicans ATCC 10231 measured after 48 hrs by broth microdilution analysis; format: functional
Candida albicans [26] = experiment: Partial synergistic antifungal activity against Candida albicans ATCC 10231 assessed as fractional inhibitory concentration index measured for 72 hrs in presence of voriconazole; format: functional
Candida albicans [27] = experiment: Synergistic antifungal activity against Candida albicans ATCC 64124 assessed as compound MIC measured after 48 hrs in presence of posaconazole by checkboard based microplate reader analysis; format: functional
Candida albicans [28] = experiment: Additive antifungal activity against Candida albicans ATCC 10231 assessed as fractional inhibitory concentration index measured for 72 hrs in presence of fluconazole; format: functional
Candida albicans [29] = experiment: Additive antifungal activity against Candida albicans ATCC MYA-2876 assessed as fractional inhibitory concentration index measured for 72 hrs in presence of voriconazole; format: functional
Candida albicans [30] = experiment: Additive antifungal activity against Candida albicans ATCC 10231 assessed as fractional inhibitory concentration index measured for 72 hrs in presence of ketoconazole; format: functional
Candida albicans [31] = experiment: Synergistic antifungal activity against Candida albicans ATCC 10231 assessed as compound MIC measured after 48 hrs in presence of itraconazole by checkboard based microplate reader analysis; format: functional
Candida albicans [32] = experiment: Additive antifungal activity against Candida albicans ATCC MYA-1237 assessed as fractional inhibitory concentration index measured for 72 hrs in presence of voriconazole; format: functional
Candida albicans [33] = experiment: Additive antifungal activity against Candida albicans ATCC MYA-1237 assessed as fractional inhibitory concentration index measured for 72 hrs in presence of posaconazole; format: functional
Candida albicans [34] = experiment: Additive antifungal activity against Candida albicans ATCC MYA-2310 assessed as fractional inhibitory concentration index measured for 72 hrs in presence of posaconazole; format: functional
Candida albicans [35] = experiment: Synergistic antifungal activity against Candida albicans ATCC 10231 assessed as compound MIC measured after 48 hrs in presence of voriconazole by checkboard based microplate reader analysis; format: functional
Aspergillus terreus [36] = experiment: Additive antifungal activity against Aspergillus terreus ATCC MYA-3633 assessed as fractional inhibitory concentration index measured for 72 hrs in presence of voriconazole; format: functional
Candida albicans [37] = experiment: Additive antifungal activity against Candida albicans ATCC 64124 assessed as fractional inhibitory concentration index measured for 72 hrs in presence of itraconazole; format: functional
Candida albicans [38] = experiment: Synergistic antifungal activity against Candida albicans ATCC 64124 assessed as compound MIC measured after 48 hrs in presence of itraconazole by checkboard based microplate reader analysis; format: functional
Candida albicans [39] = experiment: Synergistic antifungal activity against Candida albicans ATCC 64124 assessed as compound MIC measured after 48 hrs in presence of voriconazole by checkboard based microplate reader analysis; format: functional
Candida albicans [40] = experiment: Additive antifungal activity against Candida albicans ATCC 64124 assessed as fractional inhibitory concentration index measured for 72 hrs in presence of fluconazole; format: functional
Candida albicans [41] = experiment: Antifungal activity against Candida albicans ATCC MYA-2310 measured after 48 hrs by broth microdilution analysis; format: functional
Candida albicans [42] = experiment: Antifungal activity against Candida albicans ATCC 90819 measured after 48 hrs by broth microdilution analysis; format: functional

Question: What does the source list for `COc1ccc(C(=O)CCCN2CCC(O)(c3ccc(Br)cc3)CC2)cc1`?
Answer: fractional inhibitory concentration index (FICI) (Candida albicans [1]): 2; MIC (Candida albicans [2]): > 128 µg/mL; fractional inhibitory concentration index (FICI) (Candida albicans [3]): 1; fractional inhibitory concentration index (FICI) (Nakaseomyces glabratus [4]): 2; fractional inhibitory concentration index (FICI) (Candida albicans [5]): 0.13; MIC (Candida albicans [6]): > 128 µg/mL; MIC (Candida albicans [7]): > 128 µg/mL; fractional inhibitory concentration index (FICI) (Candida albicans [8]): 1.25; fractional inhibitory concentration index (FICI) (Candida albicans [9]): 2; fractional inhibitory concentration index (FICI) (Candida albicans [10]): 2; fractional inhibitory concentration index (FICI) (Candida albicans [11]): 2; fractional inhibitory concentration index (FICI) (Candida albicans [12]): 2; MIC (Candida albicans [13]): > 128 µg/mL; MIC (Aspergillus terreus [14]): > 128 µg/mL; fractional inhibitory concentration index (FICI) (Candida albicans [15]): 2; fractional inhibitory concentration index (FICI) (Nakaseomyces glabratus [16]): 0.5; MIC (Candida albicans [17]): 64 µg/mL; MIC (Nakaseomyces glabratus [18]): > 128 µg/mL; MIC (Candida albicans [19]): > 128 µg/mL; MIC (Candida albicans [20]): > 128 µg/mL; MIC (Candida albicans [21]): > 128 µg/mL; MIC (Candida albicans [22]): > 128 µg/mL; MIC (Candida albicans [23]): > 128 µg/mL; fractional inhibitory concentration index (FICI) (Nakaseomyces glabratus [24]): 0.51; Ratio (Candida albicans [25]): 16; fractional inhibitory concentration index (FICI) (Candida albicans [26]): 0.75; MIC (Candida albicans [27]): 8 µg/mL; fractional inhibitory concentration index (FICI) (Candida albicans [28]): 2; fractional inhibitory concentration index (FICI) (Candida albicans [29]): 2; fractional inhibitory concentration index (FICI) (Candida albicans [30]): 2; MIC (Candida albicans [31]): > 128 µg/mL; fractional inhibitory concentration index (FICI) (Candida albicans [32]): 2; fractional inhibitory concentration index (FICI) (Candida albicans [33]): 2; fractional inhibitory concentration index (FICI) (Candida albicans [34]): 2; MIC (Candida albicans [35]): 32 µg/mL; fractional inhibitory concentration index (FICI) (Aspergillus terreus [36]): 2; fractional inhibitory concentration index (FICI) (Candida albicans [37]): 2; MIC (Candida albicans [38]): > 128 µg/mL; MIC (Candida albicans [39]): 128 µg/mL; fractional inhibitory concentration index (FICI) (Candida albicans [40]): 2; MIC (Candida albicans [41]): > 128 µg/mL; MIC (Candida albicans [42]): > 128 µg/mL
